Non-standard residues stand in square brackets, D forms with d. Residues, ends and D or L forms follow the SMILES beside them. *: point of attachment. Phe(4-NO2) = N[CH](Cc1ccc([N+](=O)[O-])cc1)C(=O)O; Cit = NC(=O)NCCC[CH](N)C(=O)O; Cbz = O=C(OCc1ccccc1)*; CHN2 = [N-]=[N+]=C*; Bn = c1ccc(C*)cc1
Columns and labels:
Assay type in all cases: biochemical
Cathepsin B = Cathepsin B (Homo sapiens, UniProt P07858); experiment: Cathepsin B inactivation rate, fluorimetric progress curves; details: second order inactivation rate constant corrected for substrate; pH 5.4, 30° C.
Procedure: (§1) (“Tian, et al.”) the contents of which are incorporated by reference. More specifically, the value of kobs is given by the slope of a plot of ln [P]∞−[p]t versus t (time). The apparent second-order rate contact for inactivation, k2app was calculated as kobs/[I]. The inactivation-rates (kobs) in the presence of substrate and for different inhibitor concentrations for calpain, cathepsin B and cathepsin L are determined according to the method of Tian, et al. However, k2app is corrected for the presence of substrate (s) to give the second order rate constant k^12app, calculated as k^12app=k2app (1+[s]/Km).
Cathepsins B and L were preactivated with […] DTT in 50 mM sodium acetate buffer, pH 5.4, 1 mM EDTA for 2 h at 4° C. and assayed in the same buffer with 0.01% Brij [poly(oxyethylene) glycol dodecyl ether]. […] The inhibitors (0.1-1 μM) and substrate were added to the reaction mixture to incubate for 5 min in a cuvette thermostated at 30° C. Then, approximately 0.4 nM and 0.1 nM final concentration of cathepsin B and cathepsin L, respectively, were used to initiate the reaction. […] The progress curves were analyzed over at least 3 half lives to calculate the rate constants of inactivation in accordance with the procedure described by Crawford, C. Mason, R. W., Wilkström, P., and Shaw, E. in an article entitled “The design of peptidyldiazomethane inhibitors to distinguish between the cysteine proteinases calpain II, cathepsin L and cathepsin B.”, Biochem. J. 1988, 253, 751-758, the contents of which are incorporated by reference. The rates of inactivation of various substrates are tabulated hereinbelow.

Calpain = Calpain inactivation rate, fluorimetric progress curves; details: second order inactivation rate constant corrected for substrate; substrate Suc-Leu-Tyr-AMC; pH 7.5, 37° C.
Procedure: as §1
Calpain was assayed fluorimetrically in 1 ml of 50 mM Tris/acetate buffer, pH 7.5, containing 5 mM CaCl2, 2.5 mM DTT(dithiothreitol), 0.1% Triton X-100 at 37° C., using 2.5×10^−4 M Suc-Leu-Tyr-aminomethylcoumarin (AMC) (Novabiochem, Switzerland) as substrate and 50nM (final concentration) of enzyme. The appearance of the 7-amino-4 methylcoumarin product was recorded continuously with a Perkin Elmer 650-10S spectrofluorimeter, a SPEX Fluorolog 1680, or SLM 8000C fluorescence spectrometer with excitation at 370 nm and emission at 460 nm.
Typically, 5 μL of the substrate solution (50 mM stock in DMSO) was added to 1 mL of buffer. Varying concentrations of the inhibitor solution (10 μL of a DMSO […] solution) were added, followed by 10 μL of calpain in the assay buffer. After allowing the reaction mixture to incubate for 2-5 min, during which time a steady baseline level of fluorescence was measured, calcium was added in a 10-μL volume to initiate hydrolysis of the fluorogenic substrate, and the resulting increase in fluorescence was monitored continuously. When inhibitors were tested at very low concentrations, the enzyme concentration was reduced to maintain a minimum of a 10-fold excess of inhibitor over enzyme.

Cathepsin L = Cathepsin L (Homo sapiens, UniProt P07711); experiment: Cathepsin L inactivation rate, fluorimetric progress curves; details: second order inactivation rate constant corrected for substrate; substrate Z-Phe-Arg-AMC; pH 5.4, 30° C.
Procedure: as §1
Cathepsins B and L were preactivated with […] DTT in 50 mM sodium acetate buffer, pH 5.4, 1 mM EDTA for 2 h at 4° C. and assayed in the same buffer with 0.01% Brij [poly(oxyethylene) glycol dodecyl ether]. 5 μM (final concentration) CBZ-Phe-Arg-AMC was used as substrate for both for cathepsins B and L. The inhibitors (0.1-1 μM) and substrate were added to the reaction mixture to incubate for 5 min in a cuvette thermostated at 30° C. Then, approximately 0.4 nM and 0.1 nM final concentration of cathepsin B and cathepsin L, respectively, were used to initiate the reaction. […] The progress curves were analyzed over at least 3 half lives to calculate the rate constants of inactivation in accordance with the procedure described by Crawford, C. Mason, R. W., Wilkström, P., and Shaw, E. in an article entitled “The design of peptidyldiazomethane inhibitors to distinguish between the cysteine proteinases calpain II, cathepsin L and cathepsin B.”, Biochem. J. 1988, 253, 751-758, the contents of which are incorporated by reference. The rates of inactivation of various substrates are tabulated hereinbelow.

Cathepsin L, sequence (P07711 114-333, species assumed): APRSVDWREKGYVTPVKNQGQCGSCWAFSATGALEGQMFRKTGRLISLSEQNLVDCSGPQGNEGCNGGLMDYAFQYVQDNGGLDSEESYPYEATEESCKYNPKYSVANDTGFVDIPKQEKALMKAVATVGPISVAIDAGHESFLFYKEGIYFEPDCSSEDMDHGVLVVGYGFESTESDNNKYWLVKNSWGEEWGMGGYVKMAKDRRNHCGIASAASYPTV

| Molecule | Cathepsin B k′2app (Cathepsin B) | Cathepsin L k′2app (Cathepsin L) | Calpain k′2app (Calpain) |
| --- | --- | --- | --- |
| CC(C)C[C@H](NC(=O)OCc1ccccc1)C(=O)N[C@@H](CC(C)C)C(=O)N[C@@H](Cc1ccc(O)cc1)C(=O)C=[N+]=[N-] [CBZ-Leu-Leu-Tyr-CHN2, benzyloxycarbonyl -Leu-Leu-Tyr-CHN2] (Cbz-Leu-Leu-Tyr-CHN2) | 1,300 M^−1S^−1 | 1,500,000 M^−1S^−1 | 230,000 M^−1S^−1 |
| CSCCC(NC(=O)C(CC(C)C)NC(=O)OCc1ccccc1)C(=O)C=[N+]=[N-] (stereo not drawn) [CBZ-Leu-Met-CHN2, benzyloxycarbonyl-Leu-Met-CHN2] (Cbz-Leu-Met-CHN2; configuration not given here) | 4,060 M^−1S^−1 | 212,000 M^−1S^−1 | – |
| CC(C)CC(NC(=O)OCc1ccccc1)C(=O)NC(Cc1c[nH]c2ccccc12)C(=O)C=[N+]=[N-] (stereo not drawn) [CBZ-Leu-Trp-CHN2, benzyloxycarbonyl-Leu-Trp-CHN2] | <50 M^−1S^−1 | 12,000 M^−1S^−1 | – |
| CC(C)CC(NC(=O)OCc1ccccc1)C(=O)NC(Cc1ccc(O)cc1)C(=O)C=[N+]=[N-] (stereo not drawn) [CBZ-Leu-Tyr-CHN2, benzyloxycarbonyl-Leu-Tyr-CHN2] (Cbz-Leu-Tyr-CHN2; configuration not given here) | <50 M^−1S^−1 | 1,500,000 M^−1S^−1 | 1,470 M^−1S^−1 |
| CC(NC(=O)C(Cc1ccc(I)cc1)NC(=O)OCc1ccccc1)C(=O)C=[N+]=[N-] (stereo not shown) [CBZ-Phe(I)-Ala-CHN2, benzyloxycarbonyl-Phe (I) -Ala-CHN2] | 980 M^−1S^−1 | 130,000 M^−1S^−1 | – |
| [N-]=[N+]=CC(=O)C(CCCNC(N)=O)NC(=O)C(Cc1ccccc1)NC(=O)OCc1ccccc1 (stereo not drawn) [CBZ-Phe-Cit-CHN2, benzyloxycarbonyl-Phe-Cit-CHN2] (Cbz-Phe-[Cit]-CHN2; configuration not given here) | 6,700 M^−1S^−1 | 1,800,000 M^−1S^−1 | – |
| benzyloxycarbonyl-Phe-Ala-CHN2 [CBZ-Phe-Ala-CHN2] | 1,200 M^−1S^−1 | 160,000 M^−1S^−1 | <5 M^−1S^−1 |

Further lines, with some results ahead:

| Cathepsin B k′2app (Cathepsin B) | Cathepsin L k′2app (Cathepsin L) | Molecule | Calpain k′2app (Calpain) |
| --- | --- | --- | --- |
| 30,000 M^−1S^−1 | 390,000 M^−1S^−1 | [N-]=[N+]=CC(=O)C(CSCc1ccccc1)NC(=O)C(Cc1ccccc1)NC(=O)OCc1ccccc1 (stereo not drawn) [CBZ-Phe-Cys(SBnz1)-CHN2, benzyloxycarbonyl-Phe-Cys-(SBz)-CHN2] (Cbz-Phe-Cys(Bn)-CHN2; configuration not given here) | – |
| 50 M^−1S^−1 | 190,000 M^−1S^−1 | [N-]=[N+]=CC(=O)C(Cc1ccc([N+](=O)[O-])cc1)NC(=O)C(Cc1ccccc1)NC(=O)OCc1ccccc1 (stereo not drawn) [CBZ-Phe-Phe(pNO2)-CHN2, benzyloxycarbonyl-Phe-Phe (p-N02) -CHN2] (Cbz-Phe-[Phe(4-NO2)]-CHN2; configuration not given here) | – |
| 350 M^−1S^−1 | 140,000 M^−1S^−1 | [N-]=[N+]=CC(=O)[C@H](Cc1ccccc1)NC(=O)[C@H](Cc1ccccc1)NC(=O)OCc1ccccc1 [CBZ-Phe-Phe-CHN2, benzyloxycarbonyl-Phe-Phe-CHN2] (Cbz-Phe-Phe-CHN2) | – |
| 160 M^−1S^−1 | 60,000 M^−1S^−1 | CC(OC(C)(C)C)C(NC(=O)C(Cc1ccccc1)NC(=O)OCc1ccccc1)C(=O)C=[N+]=[N-] (stereo not shown) [CBZ-Phe-Thr(OtBu)-CHN2, benzyloxycarbonyl-Phe-Thr(O-t-Bu)-CHN2] | – |
